“And” between values parts separate entries of the source, which are not always exact repeats. Equal values may be shown once.

Experiment [1] deals with T1, LdNMT (Leishmania donovani, UniProt D0AB09).
T1 sequence (D0AB09 1-421): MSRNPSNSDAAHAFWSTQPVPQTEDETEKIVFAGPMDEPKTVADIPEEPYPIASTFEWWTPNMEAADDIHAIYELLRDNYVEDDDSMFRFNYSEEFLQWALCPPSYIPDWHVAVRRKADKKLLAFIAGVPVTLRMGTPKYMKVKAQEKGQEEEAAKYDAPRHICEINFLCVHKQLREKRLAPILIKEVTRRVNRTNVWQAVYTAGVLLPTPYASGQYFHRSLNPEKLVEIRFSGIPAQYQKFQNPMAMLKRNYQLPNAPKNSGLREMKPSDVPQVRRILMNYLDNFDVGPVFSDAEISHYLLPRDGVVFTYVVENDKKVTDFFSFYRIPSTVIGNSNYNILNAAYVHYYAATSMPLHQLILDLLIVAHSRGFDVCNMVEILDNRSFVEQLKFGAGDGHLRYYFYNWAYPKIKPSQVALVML
In words: NMT enzyme inhibition assay (non-radioactive), L. donovani NMT. The class given is biochemical. The following applies: for LE (ligand efficiency): LE = 1.4(-logLdNMT IC50)/N, N = number of non-H atoms; for IC50: read-out: IC50 LdNMT.

The target in experiment [2] is LmNMT (Leishmania major, UniProt Q4Q5S8). In words: biochemical. The following applies: read-out: IC50 LmNMT.
The target in experiment [3] is T2, HsNMT1 (Homo sapiens, UniProt P30419).
T2 sequence (P30419 1-496): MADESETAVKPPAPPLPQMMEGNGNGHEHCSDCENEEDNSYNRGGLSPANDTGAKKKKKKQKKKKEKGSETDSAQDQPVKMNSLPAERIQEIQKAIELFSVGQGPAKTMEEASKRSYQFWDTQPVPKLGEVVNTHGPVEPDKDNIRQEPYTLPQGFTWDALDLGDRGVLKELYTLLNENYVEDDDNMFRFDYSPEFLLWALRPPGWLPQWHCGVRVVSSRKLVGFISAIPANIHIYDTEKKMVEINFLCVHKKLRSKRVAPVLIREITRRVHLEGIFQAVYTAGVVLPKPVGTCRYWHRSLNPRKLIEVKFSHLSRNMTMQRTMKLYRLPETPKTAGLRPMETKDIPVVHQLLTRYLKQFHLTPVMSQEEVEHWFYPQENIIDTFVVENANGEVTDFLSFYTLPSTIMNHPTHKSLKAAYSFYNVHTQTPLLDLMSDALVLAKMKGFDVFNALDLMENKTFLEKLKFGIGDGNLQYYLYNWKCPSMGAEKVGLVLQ
In words: NMT enzyme inhibition assay (non-radioactive), human NMT. Format: biochemical. To be noted: for IC50: human NMT isoform 1 (HsNMT1), read-out: IC50 HsNMT; for selectivity factor: LdNMT IC50 versus human enzyme IC50.

Sequence of LmNMT (Q4Q5S8 5-421 limits assumed): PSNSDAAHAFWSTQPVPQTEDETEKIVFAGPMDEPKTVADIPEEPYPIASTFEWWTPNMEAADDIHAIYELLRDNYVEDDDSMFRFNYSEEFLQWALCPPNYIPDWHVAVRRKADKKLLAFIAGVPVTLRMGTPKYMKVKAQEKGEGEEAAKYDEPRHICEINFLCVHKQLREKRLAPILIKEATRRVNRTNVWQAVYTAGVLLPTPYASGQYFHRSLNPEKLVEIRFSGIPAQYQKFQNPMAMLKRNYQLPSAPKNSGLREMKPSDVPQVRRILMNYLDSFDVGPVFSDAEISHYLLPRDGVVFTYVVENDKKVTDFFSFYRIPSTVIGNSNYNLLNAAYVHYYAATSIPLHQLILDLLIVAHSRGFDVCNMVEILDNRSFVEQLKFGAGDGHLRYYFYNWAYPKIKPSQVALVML

With `CN1CCC(N(C)c2nc(N(C)CCC#N)c3sccc3n2)CC1` [6KV], the “LE (ligand efficiency)” value in experiment [1] is listed as 0.34. The IC50 in experiment [1] is 0.25 µM and 0.247 µM; in experiment [2] it was 0.299 ± 0.089 µM; in experiment [3], 3.56 ± 0.49 µM. The “selectivity against HsNMT1” value in experiment [3] (LdNMT over HsNMT1) was “approximately tenfold”.

In the case of `N[C@@H](CC(=O)N1C[C@H](CO)[C@@H](c2ccc(Cl)cc2)C1)Cc1ccc(Cl)cc1` [A6K], in experiment [1], the “LE (ligand efficiency)” value is reported as 0.35 and the IC50 is 0.077 ± 0.007 µM. The IC50 in experiment [2] was determined as 0.031 ± 0.004 µM. In experiment [3], the selectivity factor is recorded as around 80; the IC50 is 5 µM and 5.16 µM.

With `c1cncc(CCNCc2cccc(-c3cccc(CN4CCc5ncsc5C4)c3)c2)c1` [CWZ], in experiment [1], the “LE (ligand efficiency)” value amounted to 0.29; the IC50 was 0.9 µM and 0.914 µM. Also, the IC50 in experiment [2] was found to be 1.02 ± 0.1 µM. Moreover, in experiment [3], the selectivity factor is 50; the IC50 is 45 µM and 45.5 µM.

As a reminder, the IC50 is the concentration needed to halve the response being measured.
